In patent publication US5128362A, “1-aminomethyl-1,2,3,4-tetrahydronaphthalenes” (Abbott Laboratories, priority 1990, dated 1992):
Counter-ions that a name gives are not always drawn. Like-named read-outs stand apart in the source and are kept apart here.

How the values were obtained:
[1] = target: T1, alpha 2 receptor (Rattus norvegicus, UniProt P22909); experiment: Radioligand binding, [3H]rauwolscine, rat cerebral cortices; conditions: read-out: Ki alpha-2
T1 construct: rat cerebral cortices; from tissue; host or cells: rat cerebral cortices
T1 sequence (P22909 1-465): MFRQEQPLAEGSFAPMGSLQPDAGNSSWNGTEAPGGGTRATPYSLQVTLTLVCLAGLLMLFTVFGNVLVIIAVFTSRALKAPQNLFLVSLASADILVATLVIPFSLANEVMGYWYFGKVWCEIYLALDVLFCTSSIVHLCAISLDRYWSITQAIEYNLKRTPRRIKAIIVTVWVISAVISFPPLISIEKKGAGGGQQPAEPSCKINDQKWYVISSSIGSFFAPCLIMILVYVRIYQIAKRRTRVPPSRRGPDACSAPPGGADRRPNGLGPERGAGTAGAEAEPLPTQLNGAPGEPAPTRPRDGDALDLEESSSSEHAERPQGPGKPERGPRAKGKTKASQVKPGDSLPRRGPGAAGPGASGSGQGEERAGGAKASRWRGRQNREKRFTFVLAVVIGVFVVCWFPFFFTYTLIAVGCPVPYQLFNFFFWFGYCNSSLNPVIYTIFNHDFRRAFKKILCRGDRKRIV
Description: (§1) The compounds were assessed for alpha-adrenergic receptor subtype selectivity by use of radioligand binding techniques as described previously (DeBernardis et. al. J. Med. Chem. 28, 1398 (1985)).

[2] = tested on: alpha 2 receptor; experiment: as above; conditions: Ki alpha 1/Ki alpha-2
Description: as §1

[3] = target: T2, alpha 1 receptor (Rattus norvegicus, UniProt P15823); experiment: Radioligand binding, [3H]-prazosin, rat liver homogenates
T2 construct: rat liver homogenates; from tissue; host or cells: rat liver homogenates
T2 sequence (P15823 1-515): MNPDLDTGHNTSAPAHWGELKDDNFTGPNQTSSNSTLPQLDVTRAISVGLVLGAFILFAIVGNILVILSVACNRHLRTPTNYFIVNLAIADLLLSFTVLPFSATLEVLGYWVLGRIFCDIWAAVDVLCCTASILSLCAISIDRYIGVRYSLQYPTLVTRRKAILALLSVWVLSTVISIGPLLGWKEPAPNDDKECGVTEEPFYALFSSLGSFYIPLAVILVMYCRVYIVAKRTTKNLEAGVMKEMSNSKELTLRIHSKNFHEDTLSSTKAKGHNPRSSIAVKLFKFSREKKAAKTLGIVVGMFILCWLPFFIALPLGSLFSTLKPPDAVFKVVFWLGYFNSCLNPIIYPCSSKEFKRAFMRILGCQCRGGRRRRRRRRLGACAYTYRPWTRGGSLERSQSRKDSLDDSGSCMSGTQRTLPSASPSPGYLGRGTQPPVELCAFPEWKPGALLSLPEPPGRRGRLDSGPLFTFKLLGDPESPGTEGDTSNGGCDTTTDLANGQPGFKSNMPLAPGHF
Description: as §1

[4] = tested on: serotonin uptake; experiment: Uptake inhibition, tritiated serotonin, rat brain synaptosomes; type: biochemical, Sprague-Dawley derived rats; conditions: 0.1 μM tritiated amine, 37° C., 4 minutes, read-out: Biogenic Amine Uptake Inhibition IC50 Serotonin
Excerpt: (§2) Sprague-Dawley derived rats of either sex, weighing about 180-250 g, were killed by decapitation. The brains were immediately removed, placed on a glass plate chilled over crushed ice and dissected according to a modification of the method of Glowinski and Iversen (J. Neurochem. 13, 655-669, 1966). First, the rhombencephalon was separated by transverse section and discarded. The remaining tissue was bisected by a midline sagittal cut. The hypothalamus was removed using the anterior and posterior reference points, respectively. The hippocampus was peeled away and discarded and the striata were exposed and removed. Frontal cortical tissue was dissected from remaining brain structures. […]
(§3) Uptake studies were conducted according to the method of Synder and Coyle (J. Pharmacol. Exp. Ther. 165, 78-86, 1969) with minor modifications. Usually a 0.1 ml aliquot of the synaptosomal preparation was incubated in a mixture of 0.75 ml of modified Krebs-Ringer buffer, 0.05 ml of the drug being evaluated for uptake inhibition, and 0.1 ml of a 1 μM tritiated amine (norepinephrine, serotonin or dopamine) solution (final concentration 0.1 μM) for a total volume of 1 ml. […] All samples were cold and dark adapted and counted in a Tri-Carb® (Packard) Model 460 Liquid Scintillation Spectrometer. Corrections were automatically made for quenching by the external standard method and for luminescence. […]

[5] = tested on: norepinephrine uptake; experiment: Uptake inhibition, tritiated norepinephrine, rat brain synaptosomes; type: biochemical, Sprague-Dawley derived rats; conditions: 0.1 μM tritiated amine, 37° C., 4 minutes, read-out: Biogenic Amine Uptake Inhibition IC50 Norephinephrine
Excerpt: as §2, §3

[6] = tested on: dopamine uptake; experiment: Uptake inhibition, tritiated dopamine, rat brain synaptosomes; type: biochemical, Sprague-Dawley derived rats; conditions: 0.1 μM tritiated amine, 37° C., 4 minutes, read-out: Biogenic Amine Uptake Inhibition IC50 Dopamine
Excerpt: as §2, §3

[7] = rat cerebral cortices, [3H]rauwolscine

SMILES	Ki [1]	alpha-2 - Selectivity Ki alpha 1/Ki alpha-2 [2]	also measured
CN(CCc1cccs1)CC1CCCc2c(Cl)cccc21 (stereo not shown) [Example 129, 1-((N-Methylamino)methyl-N-(2-(2-thieny)ethyl))-5-chloro tetralin hydrochloride]	3.6 nM	55	–
c1ccc(C2CCN(CC3CCCc4c3ccc3c4OCO3)C2)cc1 (stereo not shown) [Example 143a, 5,6-Methylenedioxy-1-(3-phenylpyrrolidino-1-methyl) tetralin methanesulfonate]	1.2 nM	43	–
Fc1ccc2c(c1)CCCC2CN1CCC(c2ccccc2)C1 (stereo not shown) [Example 148, 6-Fluoro-1-(3-phenylpyrrolidino-1-methyl) tetralin methanesulfonate]	6.5 nM	19	–
COc1ccc2c(c1)CCC2CN1CCC(c2cccc(F)c2)C1 (stereo not shown) [Example 153, 5-Methoxy-1-(3-(m-fluorophenyl)pyrrolidino-1-methyl) indane hydrochloride]	8.6 nM	7	–
Nc1ccc2c(c1)CCCC2CN1CCC(c2ccccc2)C1 (stereo not shown) [Example 156, 6-Amino-1-(3-phenylpyrrolidino-1-methyl) tetralin dihydrochloride]	6 nM	21	–
Fc1cc2c(c3c1C(CN1CCC(c4ccccc4)C1)CCC3)OCO2 (stereo not shown) [Example 160, 8-Fluoro-5,6-methylenedioxy-1-(3-phenylpyrrolidino-1-methyl) tetralin hydrochloride]	–	–	IC50 [4]: 1840 nM; IC50 [5]: 991 nM; IC50 [6]: 2930 nM
CN(CCc1cccc(F)c1)CC1CCCc2c1ccc1c2OCCO1 (stereo not shown) [Example 167, 1-((N-Methylamino)methyl-N-(2-m-fluorophenethyl))-5,6-ethylenedioxy tetralin methanesulfonate]	4.2 nM	85	–
CN(c1ccc2c(c1)CCCC2CN1CCC(c2ccccc2)C1)S(C)(=O)=O (stereo not shown) [Example 193, 6-(N-methylmethylsulfonamido)-1-(3-phenylpyrrolidino-1-methyl)tetralin hydrochloride]	1.3 nM	93	–

The next lines start with results.

Ki [1]	alpha-2 - Selectivity Ki alpha 1/Ki alpha-2 [2]	SMILES	also measured
1 nM	95	COc1ccc2c(c1)CCCC2CN1CCC(c2ccccc2)C1 (stereo not shown) [Example 121, 6-Methoxy-1-(3-phenylpyrrolidino-1-methyl) tetralin hydrochloride]	–
4.9 nM	35	COc1cccc2c1CCCC2CN1CCC(c2cccs2)C1 (stereo not shown) [Example 146, 5-Methoxy-1-(3-(2-thienyl)pyrrolidino-1-methyl) tetralin hydrochloride]	–
–	45	Fc1ccc2c(c1)CCCC2CN1CCC(c2cccs2)C1 (stereo not shown) [Example 149, 6-Fluoro-1-(3-(2-thienyl)pyrrolidino-1-methyl) tetralin methanesulfonate]	Ki [1, 7]: 4.9 nM
2.5 nM	71	COc1ccc2c(c1)CCC2CN1CCC(c2cccs2)C1 (stereo not shown) [Example 151, 5-Methoxy-1-(3-(2-thienyl)pyrrolidino-1-methyl) indane hydrochloride]	–
–	11	COc1ccc2c(c1)CCC2CN1CCC(c2ccccc2)C1 (stereo not shown) [Example 152, 5-Methoxy-1-(3-phenylpyrrolidino-1-methyl) indane hydrochloride]	Ki [1, 7]: 4.8 nM; Ki [3]: 51 nM
